From patent publication US20240239854A1, “ANTIMICROBIAL PEPTIDES AND MODIFICATIONS THEREOF” (Donald Danforth Plant Science Center, priority 2022, published 2024) come the findings set out here.

Common to all, as to assay type: cell-based
In test [1] the test system is Fusarium graminearum PH-1. The note with it: for F. graminearum PH-1 MIC Day1: MIC Day 1, 96-well plate, resazurin cell viability; for MIC, in-vitro antifungal activity against F. graminearum: F. graminearum PH-1, 48 hours. (Alamar Blue is a resazurin reagent that responds to reducing activity.)
Test [2] has as its system Botrytis cinerea T4.
Test [3] relates to Zymoseptoria tritici IPO323.

Regarding “PD94.1.1: Solanum lycopersicum wild-type defensin SEQ ID NO: 593 with N-terminal alanine, expressed in Pichia pastoris (KLCQYHSETFHGVCVTGNNCNRHCQRENFEGGRCHGIRHYRCVCYRTC; N-terminal alanine; listed as Solanum lycopersicum)”, in test [1], the “F. graminearum PH-1 MIC Day1” value is over 12 µM. For the same substance, in test [2], the “B. cinerea T4 MIC Day1” value was over 12 µM. For the same substance, in test [3], the “Z. tritici IPO323 MIC Day 1” value was over 12 µM, the “Z. tritici IPO323 MIC Day 7” value was over 12 µM and the “Z. tritici IPO323 MIC Day 14” value is over 12 µM.
Consider “PD96.1.1: Thlaspi arvense wild-type defensin SEQ ID NO: 603 with N-terminal alanine, expressed in Pichia pastoris (RMCESKSHEFKGFCTKWRICRDVCITEGFTDGGCHGVLRHCVCKKPCLLSN; N-terminal alanine; Thlaspi arvense)”, for which, in test [1], the “MIC, in-vitro antifungal activity against F. graminearum” value (“MIC, in-vitro antifungal activity” for short) came to 0.75 µM and the “F. graminearum PH-1 MIC Day1” value was found to be 0.75 µM. In test [2], the “B. cinerea T4 MIC Day1” value amounted to 6 µM. Moreover, in test [3], the “Z. tritici IPO323 MIC Day 1” value was determined as 2.5 µM, the “Z. tritici IPO323 MIC Day 7” value was 10 µM and the “Z. tritici IPO323 MIC Day 14” value was over 12 µM.
In the case of “PD126.1.1: wild-type defensin-like protein SEQ ID NO: 730 with N-terminal alanine, expressed in Pichia pastoris (KLCERRSKTWTGWCAKTSHCNKQCKDWERVEHGACHGEFLEKPVSAISNAHCKISF; N-terminal alanine added; listed as Prunus armeniaca)”, the “F. graminearum PH-1 MIC Day1” value in test [1] was over 12 µM. Moreover, the “B. cinerea T4 MIC Day1” value in test [2] is over 12 µM. Also, in test [3], the “Z. tritici IPO323 MIC Day 1” value was over 12 µM, the “Z. tritici IPO323 MIC Day 7” value is over 12 µM and the “Z. tritici IPO323 MIC Day 14” value is over 12 µM.
As for “PD120.1.1: Setaria italica wild-type defensin SEQ ID NO: 706 with N-terminal alanine, expressed in Pichia pastoris (DRCETHSRTYKGRCNNHNCWSICITEGNTGGFCKGTLLLKCMCTSEC; N-terminal alanine added; listed as Setaria italica)”, the “F. graminearum PH-1 MIC Day1” value in test [1] turned out to be 12 µM. Also, the “B. cinerea T4 MIC Day1” value in test [2] is over 12 µM.
Turning to “PD95.1.1: Mimulus guttatus wild-type defensin SEQ ID NO: 598 with N-terminal alanine, expressed in Pichia pastoris (RHCESPSHRFKGICVRKSNCAAICQTEGFSSGKCRGFRSRCVCIKHC; N-terminal alanine; listed as Mimulus guttatus)”, in test [1], the “MIC, in-vitro antifungal activity” value came out at 0.75 µM and the “F. graminearum PH-1 MIC Day1” value came to 0.75 µM. For the same substance, the “B. cinerea T4 MIC Day1” value in test [2] stood at 0.75 µM.
Consider “PD83.1.1: Eucalyptus grandis wild-type defensin SEQ ID NO: 542 with N-terminal alanine, expressed in Pichia pastoris (RMCESQSHKFHGLCMSDRTCVVVCKEEDFDDGKCRGFRHRCFCRKPC; N-terminal alanine added; listed as Eucalyptus grandis)”, for which the “F. graminearum PH-1 MIC Day1” value in test [1] is over 12 µM. Besides, in test [2], the “B. cinerea T4 MIC Day1” value is over 12 µM.
For the substance “PD99.1.1: Theobroma cacao wild-type defensin SEQ ID NO: 616 with N-terminal alanine, expressed in Pichia pastoris (KLCQKRSKTWTGPCIKTKNCDHQCRKWEKAQHGACHWQWPGFACFCYVNC; N-terminal alanine; Theobroma cacao)”, in test [1], the “MIC, in-vitro antifungal activity” value worked out at 0.75 µM and the “F. graminearum PH-1 MIC Day1” value was determined as 0.75 µM. Further, the “B. cinerea T4 MIC Day1” value in test [2] amounted to 0.75 µM.
On to “PD114.1.1: Lupinus albus wild-type defensin SEQ ID NO: 679 with N-terminal alanine, expressed in Pichia pastoris (RTCKSKSQRYKGSCYSDNNCAIICEGEGFTGGKCHGFFCKCWCKRPCL; N-terminal alanine added; listed as Lupinus albus)”, for which the “F. graminearum PH-1 MIC Day1” value in test [1] was over 12 µM. Further, the “B. cinerea T4 MIC Day1” value in test [2] is over 12 µM.
